Experimental findings from ChEMBL document CHEMBL5329217, “Hesperidin Methyl Chalcone reduces extracellular Aβ(25-35) peptide aggregation and fibrillation and also protects Neuro 2a cells from Aβ(25-35) induced neuronal dysfunction” (Bioorg Med Chem, 2023) are described below.

Each structure is given as a SMILES string. Active and inactive are the calls of the source. No cut-off for these calls is given here.

A short description of data set [1]: Cytotoxicity against mouse Neuro2a cells assessed as cell viability at 100 ug/ml incubated for 24 hrs by MTT assay. It is filed as toxicity, cell-based. To be noted: Neuro2a (N2a) cells, at 100 µg/mL, read-out: Activity. Background: Formazan colour is commonly taken as a measure of viable cells.
The subject of data set [2] is N2a. The data set can be described thus: Neuroprotective activity against Amyloid beta (25 to 35)-induced toxicity in mouse Neuro2a cells assessed as reduction in cell viability loss at 25 to 100 ug/ml pretreated for 2 hrs followed by amyloid beta (25 to 35) addition and measured after 24 hrs by MTT assay. It is filed as functional, cell-based. Conditions: dose 25-100 µg/ml, time 26.0 hrs.

The test system of data set [3] is N2a. As to the kind of experiment: Inhibition of Amyloid beta (25 to 35)-induced oxidative damage in mouse Neuro2a cells assessed as reduction in ROS production by measuring reduction in fluorescence intensity at 25 to 50 ug/ml pretreated for 2 hrs followed by amyloid beta (25 to 35) addition and measured after 24 hrs by DCFH-DA staining -based spectrofluorimetric assay. It is filed as functional, cell-based. Conditions: dose 25-50 µg/ml, time 26.0 hrs.

In data set [4] the test system is N2a. As to the kind of experiment: Inhibition of Amyloid beta (25 to 35)-induced macromolecular damage in mouse Neuro2a cells assessed as reduction in lipid peroxidation by measuring MDA content at 25 ug/ml pretreated for 2 hrs followed by amyloid beta (25 to 35) addition and measured after 24 hrs per mg protein (reference value: 106.4 +/-1.9 nmol). To be noted: dose 25 µg/ml; time 26 hrs. In kind it is functional.

For data set [5], the system named is N2a. The data set can be described thus: Inhibition of Amyloid beta (25 to 35)-induced macromolecular damage in mouse Neuro2a cells assessed as reduction in lipid peroxidation by measuring MDA content at 50 ug/ml pretreated for 2 hrs followed by amyloid beta (25 to 35) addition and measured after 24 hrs per mg protein (reference value: 106.4 +/-1.9 nmol). In kind it is functional. To be noted: dose 50 µg/ml; time 26 hrs.

Data set [6] deals with N2a. The data set can be described thus: Inhibition of Amyloid beta (25 to 35)-induced macromolecular damage in mouse Neuro2a cells assessed as reduction in protein oxidation by measuring protein carbonyl content at 25 ug/ml pretreated for 2 hrs followed by amyloid beta (25 to 35) addition and measured after 24 hrs per mg protein (reference value: 44.06 +/- 1.02 nmol). In kind it is functional. To be noted: dose 25 µg/ml; time 26 hrs.

Data set [7] concerns N2a. The data set can be described thus: Inhibition of Amyloid beta (25 to 35)-induced macromolecular damage in mouse Neuro2a cells assessed as reduction in protein oxidation by measuring protein carbonyl content at 50 ug/ml pretreated for 2 hrs followed by amyloid beta (25 to 35) addition and measured after 24 hrs per mg protein (reference value: 44.06 +/- 1.02 […]). It is filed as functional. Conditions: dose 50 µg/ml; time 26 hrs.

Data set [8] deals with N2a. The data set can be described thus: Inhibition of Amyloid beta (25 to 35)-induced mitochondrial membrane potential loss in mouse Neuro2a cells at 25 to 50 ug/ml pretreated for 2 hrs followed by amyloid beta (25 to 35) addition and measured after 24 hrs by rhodamine 123 staining based fluorescent spectrophotometry. It is filed as functional, cell-based. Conditions: dose 25-50 µg/ml, time 26.0 hrs.

The target of data set [9] is T1, Acetylcholinesterase (Mus musculus) (UniProt P21836).
T1 sequence (whole entry): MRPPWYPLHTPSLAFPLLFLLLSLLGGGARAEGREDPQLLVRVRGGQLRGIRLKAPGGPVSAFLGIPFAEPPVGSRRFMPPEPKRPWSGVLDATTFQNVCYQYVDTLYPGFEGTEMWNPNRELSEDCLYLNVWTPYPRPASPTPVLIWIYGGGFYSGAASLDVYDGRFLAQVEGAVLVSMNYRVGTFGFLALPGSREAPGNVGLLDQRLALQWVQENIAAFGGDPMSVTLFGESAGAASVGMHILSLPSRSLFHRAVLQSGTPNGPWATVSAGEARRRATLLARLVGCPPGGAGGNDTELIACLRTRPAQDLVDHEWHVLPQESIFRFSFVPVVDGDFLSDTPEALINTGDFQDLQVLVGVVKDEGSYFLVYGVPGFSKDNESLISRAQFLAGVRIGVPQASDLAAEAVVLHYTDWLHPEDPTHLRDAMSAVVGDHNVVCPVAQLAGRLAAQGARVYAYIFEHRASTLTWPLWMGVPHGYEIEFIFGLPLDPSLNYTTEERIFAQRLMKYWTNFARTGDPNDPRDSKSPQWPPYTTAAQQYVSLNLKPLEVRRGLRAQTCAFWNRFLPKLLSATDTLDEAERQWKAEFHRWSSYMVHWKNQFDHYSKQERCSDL
The data set can be described thus: Inhibition of Amyloid beta (25 to 35)-induced AChE activity in mouse Neuro2a cells assessed as AChE activity at 25 ug/ml pretreated for 2 hrs followed by amyloid beta (25 to 35) addition and measured after 24 hrs per mg protein (reference value: 0.0012 +/-4.18 U). It is filed as cell-based. To be noted: dose 25.0 µg/ml, time 26.0 hrs.

The target in data set [10] is T1, Acetylcholinesterase (Mus musculus). The data set can be described thus: Inhibition of Amyloid beta (25 to 35)-induced AChE activity in mouse Neuro2a cells assessed as AChE activity at 50 ug/ml pretreated for 2 hrs followed by amyloid beta (25 to 35) addition and measured after 24 hrs per mg protein (reference value: 0.0012 +/-4.18 U). It is filed as cell-based. Conditions: dose 50.0 µg/ml, time 26.0 hrs.

The target in data set [11] is Cholinesterase (Mus musculus) (UniProt Q03311). The data set can be described thus: Inhibition of Amyloid beta (25 to 35)-induced BuChE activity in mouse Neuro2a cells assessed as BuChE activity at 25 ug/ml pretreated for 2 hrs followed by amyloid beta (25 to 35) addition and measured after 24 hrs per mg protein (reference value: 0.0007 +/-3.64 U). In kind it is cell-based. Conditions: dose 25.0 µg/ml, time 26.0 hrs.
Sequence of Cholinesterase (Mus musculus) (Q03311 whole entry): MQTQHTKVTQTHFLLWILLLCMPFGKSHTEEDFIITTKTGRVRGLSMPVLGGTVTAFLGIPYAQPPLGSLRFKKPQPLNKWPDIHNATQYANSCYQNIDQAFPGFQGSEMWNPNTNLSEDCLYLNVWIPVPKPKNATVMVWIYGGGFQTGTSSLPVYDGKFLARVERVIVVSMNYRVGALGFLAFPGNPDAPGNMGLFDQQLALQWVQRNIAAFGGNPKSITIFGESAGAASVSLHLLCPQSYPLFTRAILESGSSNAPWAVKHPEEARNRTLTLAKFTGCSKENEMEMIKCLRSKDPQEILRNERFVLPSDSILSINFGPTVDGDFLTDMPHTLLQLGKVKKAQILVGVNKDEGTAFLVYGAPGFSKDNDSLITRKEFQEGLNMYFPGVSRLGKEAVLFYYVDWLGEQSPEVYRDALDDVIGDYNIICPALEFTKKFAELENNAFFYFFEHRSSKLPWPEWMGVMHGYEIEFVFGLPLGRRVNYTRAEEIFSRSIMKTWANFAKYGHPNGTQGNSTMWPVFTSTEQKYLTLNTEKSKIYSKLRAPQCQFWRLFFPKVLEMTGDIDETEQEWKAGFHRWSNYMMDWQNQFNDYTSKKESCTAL

Data set [12] shares this target. The data set can be described thus: Inhibition of Amyloid beta (25 to 35)-induced BuChE activity in mouse Neuro2a cells assessed as BuChE activity at 50 ug/ml pretreated for 2 hrs followed by amyloid beta (25 to 35) addition and measured after 24 hrs per mg protein (reference value: 0.0007 +/-3.64 U). It is filed as cell-based. To be noted: dose 50.0 µg/ml, time 26.0 hrs.

Data set [13] deals with N2a. The data set can be described thus: Neuroprotective activity against Amyloid beta (25 to 35)-induced toxicity in mouse Neuro2a cells assessed as non-apoptotic viable cells at 25 ug/ml pretreated for 2 hrs followed by amyloid beta (25 to 35) addition and measured after 24 hrs by AO/EtBr dual staining based fluorescence microscopy (reference value: 53.4 +/-3.88%). It is filed as functional. To be noted: dose 25 µg/ml; time 26 hrs.

Data set [14] concerns N2a. As to the kind of experiment: Neuroprotective activity against Amyloid beta (25 to 35)-induced toxicity in mouse Neuro2a cells assessed as non-apoptotic viable cells at 50 ug/ml pretreated for 2 hrs followed by amyloid beta (25 to 35) addition and measured after 24 hrs by AO/EtBr dual staining based fluorescence microscopy (reference value: 53.4 +/-3.88%). It is filed as functional. To be noted: dose 50 µg/ml; time 26 hrs.

Data set [15] relates to N2a. As to the kind of experiment: Inhibition of Amyloid beta (25 to 35)-induced apoptosis in mouse Neuro2a cells assessed as reduction in caspase-3 activity by measuring PNA level at 25 ug/ml pretreated for 2 hrs followed by amyloid beta (25 to 35) addition and measured after 24 hrs per mg protein (reference value: 0.12 +/-0.004 mM/min). To be noted: dose 25 µg/ml; time 26 hrs. In kind it is functional.

The test system of data set [16] is N2a. As to the kind of experiment: Inhibition of Amyloid beta (25 to 35)-induced apoptosis in mouse Neuro2a cells assessed as reduction in caspase-3 activity by measuring PNA level at 50 ug/ml pretreated for 2 hrs followed by amyloid beta (25 to 35) addition and measured after 24 hrs per mg protein (reference value: 0.12 +/-0.004 mM/min). It is filed as functional. To be noted: dose 50 µg/ml; time 26 hrs.

Data set [17] concerns N2a. As to the kind of experiment: Inhibition of Amyloid beta (25 to 35)-induced apoptosis in mouse Neuro2a cells assessed as increase in BCl2 expression at 50 ug/ml pretreated for 2 hrs followed by amyloid beta (25 to 35) addition and measured after 24 hrs by Western blot analysis. In kind it is functional, cell-based. To be noted: dose 50.0 µg/ml, time 26.0 hrs. A general note: A western blot detects proteins with antibodies after separation by electrophoresis.

Data set [18] relates to N2a. The data set can be described thus: Inhibition of Amyloid beta (25 to 35)-induced apoptosis in mouse Neuro2a cells assessed as decrease in Bax expression at 50 ug/ml pretreated for 2 hrs followed by amyloid beta (25 to 35) addition and measured after 24 hrs by Western blot analysis. In kind it is functional, cell-based. Conditions: dose 50.0 µg/ml, time 26.0 hrs.
The test system of data set [19] is N2a. As to the kind of experiment: Inhibition of Amyloid beta (25 to 35)-induced apoptosis in mouse Neuro2a cells assessed as Bax/Bcl2 ratio at 50 ug/ml pretreated for 2 hrs followed by amyloid beta (25 to 35) addition and measured after 24 hrs by Western blot analysis (reference value: 1.09 +/- 0.018). In kind it is functional. Conditions: dose 50 µg/ml; time 26 hrs.

`COc1ccc(/C=C/C(=O)c2c(O)cc(O[C@@H]3O[C@H](CO[C@@H]4O[C@@H](C)[C@H](O)[C@@H](O)[C@H]4O)[C@@H](O)[C@H](O)[C@H]3O)cc2OC)cc1O`: the viability at 24 h, 100 ug/ml in data set [1] was found to be 99.6%. Besides, the outcome in [2] was Active. In addition, the inhibition result in [3], in [8], in [17] and in [18] was “Active” in each case. Also, the Activity in [4] was found to be 77.84 nmol; in data set [5], 64.63 nmol; in [6] it was 33.9 nmol/mg; in [7], 27.9 nmol/mg; in data set [9], 0 U; in data set [10] it was 0 U. The Activity was 0 U in [11]; 0 U in [12]; 70.33% in data set [13]; 81.66% in [14]; 0.07 mM/min in data set [15]; 0.03 mM/min in data set [16]. Also, the Ratio in [19] is 0.51.
